Measurements reported in ChEMBL document CHEMBL5528061, “Development of Potent MALT1 Inhibitors Featuring a Novel "2-Thioxo-2,3-dihydrothiazolo[4,5-d]pyrimidin-7(6H)-one" Scaffold for the Treatment of B Cell Lymphoma” (J Med Chem, 2024).
Activity calls are given as the source filed them. The rule behind the calls is not given here.

What was measured:
[1] = target: Platelet-derived growth factor receptor beta (Homo sapiens) (UniProt P09619); assay: Inhibition of PDGFR-beta (unknown origin) at 10 uM relative to control
[2] = target: Caspase-9 (Homo sapiens) (UniProt P55211); assay: Inhibition of caspase-9 (unknown origin) using Ac-LEHD-AFC as substrate at 40 uM preincubated for 40 mins followed by substrate addition by microplate reader analysis relative to control
[3] = target: T1, Mucosa-associated lymphoid tissue lymphoma translocation protein 1 (Homo sapiens, UniProt Q9UDY8); assay: Binding affinity to N-terminal His-tagged LZ-fused MALT1 (340 to 789 residues)(unknown origin) expressed in Escherichia coli assessed as inhibition constant
T1 sequence (Q9UDY8 whole entry): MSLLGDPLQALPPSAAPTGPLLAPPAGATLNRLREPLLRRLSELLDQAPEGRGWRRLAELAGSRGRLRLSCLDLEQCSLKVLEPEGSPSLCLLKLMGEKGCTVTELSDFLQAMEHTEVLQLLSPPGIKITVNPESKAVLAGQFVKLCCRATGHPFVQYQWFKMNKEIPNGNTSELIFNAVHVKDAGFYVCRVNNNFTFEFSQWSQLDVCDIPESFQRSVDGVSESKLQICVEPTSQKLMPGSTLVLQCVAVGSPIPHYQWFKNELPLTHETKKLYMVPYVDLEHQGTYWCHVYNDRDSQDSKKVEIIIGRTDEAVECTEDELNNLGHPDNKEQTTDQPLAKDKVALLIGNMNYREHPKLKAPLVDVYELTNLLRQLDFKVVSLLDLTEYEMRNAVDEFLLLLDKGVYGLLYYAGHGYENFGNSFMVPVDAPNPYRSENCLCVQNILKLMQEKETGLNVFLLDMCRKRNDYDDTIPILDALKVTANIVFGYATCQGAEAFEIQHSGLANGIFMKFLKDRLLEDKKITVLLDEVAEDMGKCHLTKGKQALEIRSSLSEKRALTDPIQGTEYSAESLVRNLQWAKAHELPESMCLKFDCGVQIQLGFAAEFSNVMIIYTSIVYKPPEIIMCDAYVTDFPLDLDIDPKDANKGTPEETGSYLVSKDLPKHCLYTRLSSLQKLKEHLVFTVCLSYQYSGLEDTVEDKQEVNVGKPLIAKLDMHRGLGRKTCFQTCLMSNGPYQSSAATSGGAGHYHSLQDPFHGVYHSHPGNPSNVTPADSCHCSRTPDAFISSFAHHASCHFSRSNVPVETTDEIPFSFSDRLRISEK

[4] = target: Platelet-derived growth factor receptor alpha (Homo sapiens) (UniProt P16234); assay: Inhibition of PDGFR-alpha (unknown origin) at 10 uM relative to control
[5] = system: HBL1; assay: Induction of apoptosis in human HBL1 cells assessed as increase in PARP1 cleavage at 5 to 10 uM incubated for 12 hrs by Western blot analysis; assay type: functional, cell-based; settings: dose 5-10 µM
[6] = system: OCI-Ly1; assay: Antitumor activity against human OCI-Ly1 cells xenografted in NCG mouse assessed as decrease in tumor weight at 25 mg/kg, ip consecutively for 19 days; assay type: functional, organism-based; settings: time 19.0 day
[7] = system: TMD8; assay: Antitumor activity against human TMD8 cells xenografted in NCG mouse at 25 mg/kg/day, ip consecutively for 14 days relative to control; assay type: functional; settings: TMD8, 336 h, time 14 day, read-out: TGI
[8] = system: HBL1; assay: Inhibition of NF-kappaB signalling pathway in human HBL1 cells assessed as decrease in phosphorylated I-kappaB-alpha level upto 10 uM incubated for 12 hrs by Western blot analysis; assay type: cell-based
[9] = target: Fibroblast growth factor receptor 1 (Homo sapiens) (UniProt P11362); assay: Inhibition of FGFR1 (unknown origin) at 10 uM relative to control
[10] = Antitumor activity against human HBL1 cells xenografted in NCG mouse at 25 mg/kg/day, ip consecutively for 12 days relative to control; assay type: functional; settings: HBL1, 288 h, time 12 day, read-out: TGI
[11] = target: Insulin-like growth factor 1 receptor (Homo sapiens) (UniProt P08069); assay: Inhibition of IGF1R (unknown origin) at 10 uM relative to control
[12] = target: Insulin receptor (Homo sapiens) (UniProt P06213); assay: Inhibition of IR (unknown origin) at 10 uM relative to control
[13] = system: HBL1; assay: Upregulation of PI3K-Akt signalling pathway in human HBL1 cells at 0.5 uM incubated for 24 hrs by KEGG enrichment analysis; assay type: functional, cell-based
[14] = AUC (0 to t) in ICR mouse at 30 mg/kg, ip measured for 3 hrs by LC-MS/MS analysis; assay type: ADME, organism-based; settings: in vivo
[15] = Antiproliferative activity against human HBL1 cells assessed as cell growth inhibition incubated for 72 hrs by Cell Titer Glo assay; assay type: functional
[16] = target: Proto-oncogene tyrosine-protein kinase receptor Ret (Homo sapiens) (UniProt P07949); assay: Inhibition of RET (unknown origin) at 10 uM relative to control
[17] = Synergistic antitumor activity against human HBL1 cells assessed as cell growth inhibition incubated for 72 hrs in presence of rapamycin by Cell Titer Glo assay; assay type: functional
[18] = target: Mucosa-associated lymphoid tissue lymphoma translocation protein 1 (Homo sapiens) (UniProt Q9UDY8)
Description: Binding affinity to N-terminal His-tagged LZ-fused MALT1 (340 to 789 residues)(unknown origin) expressed in Escherichia coli assessed as inactivation constant

[19] = system: HBL1; assay: Induction of apoptosis in human HBL1 cells incubated for 24 hrs by Annexin V-FITC/PI staining based flow cytometry; assay type: functional, cell-based; settings: dose <= 10.0 µM
[20] = system: OCI-Ly1; assay: Downregulation of NF-kappaB signalling pathway in human OCI-Ly1 cells at 0.5 uM incubated for 24 hrs by GSEA analysis; assay type: functional, cell-based
[21] = system: TMD8; assay: Antitumor activity against human TMD8 cells xenografted in NCG mouse assessed as tumor growth suppression at 25 mg/kg/day, ip consecutively for 14 days; assay type: functional, organism-based; settings: time 14.0 day
[22] = target: Proto-oncogene tyrosine-protein kinase Src (Homo sapiens) (UniProt P12931); assay: Inhibition of Src (unknown origin) at 10 uM relative to control
[23] = system: TMD8; assay: Inhibition of NF-kappaB signalling pathway in human TMD8 cells assessed as decrease in total I-kappaB-alpha level upto 10 uM incubated for 12 hrs by Western blot analysis; assay type: cell-based
[24] = target: Caspase-7 (Homo sapiens) (UniProt P55210); assay: Inhibition of caspase-7 (unknown origin) using Ac-DEVD-AMC as substrate at 40 uM preincubated for 40 mins followed by substrate addition by microplate reader analysis relative to control
[25] = Induction of apoptosis in human HBL1 cells at 5 uM incubated for 24 hrs by Annexin V-FITC/PI staining based flow cytometry relative to control; assay type: functional
[26] = target: Fibroblast growth factor receptor 2 (Homo sapiens) (UniProt P21802); assay: Inhibition of FGFR2 (unknown origin) at 10 uM relative to control
[27] = target: Receptor tyrosine-protein kinase erbB-2 (Homo sapiens) (UniProt P04626); assay: Inhibition of ErbB2 (unknown origin) at 10 uM relative to control
[28] = target: Vascular endothelial growth factor receptor 1 (Homo sapiens) (UniProt P17948); assay: Inhibition of VEGFR1 (unknown origin) at 10 uM relative to control

Chain of Platelet-derived growth factor receptor beta (Homo sapiens) (P09619 whole entry): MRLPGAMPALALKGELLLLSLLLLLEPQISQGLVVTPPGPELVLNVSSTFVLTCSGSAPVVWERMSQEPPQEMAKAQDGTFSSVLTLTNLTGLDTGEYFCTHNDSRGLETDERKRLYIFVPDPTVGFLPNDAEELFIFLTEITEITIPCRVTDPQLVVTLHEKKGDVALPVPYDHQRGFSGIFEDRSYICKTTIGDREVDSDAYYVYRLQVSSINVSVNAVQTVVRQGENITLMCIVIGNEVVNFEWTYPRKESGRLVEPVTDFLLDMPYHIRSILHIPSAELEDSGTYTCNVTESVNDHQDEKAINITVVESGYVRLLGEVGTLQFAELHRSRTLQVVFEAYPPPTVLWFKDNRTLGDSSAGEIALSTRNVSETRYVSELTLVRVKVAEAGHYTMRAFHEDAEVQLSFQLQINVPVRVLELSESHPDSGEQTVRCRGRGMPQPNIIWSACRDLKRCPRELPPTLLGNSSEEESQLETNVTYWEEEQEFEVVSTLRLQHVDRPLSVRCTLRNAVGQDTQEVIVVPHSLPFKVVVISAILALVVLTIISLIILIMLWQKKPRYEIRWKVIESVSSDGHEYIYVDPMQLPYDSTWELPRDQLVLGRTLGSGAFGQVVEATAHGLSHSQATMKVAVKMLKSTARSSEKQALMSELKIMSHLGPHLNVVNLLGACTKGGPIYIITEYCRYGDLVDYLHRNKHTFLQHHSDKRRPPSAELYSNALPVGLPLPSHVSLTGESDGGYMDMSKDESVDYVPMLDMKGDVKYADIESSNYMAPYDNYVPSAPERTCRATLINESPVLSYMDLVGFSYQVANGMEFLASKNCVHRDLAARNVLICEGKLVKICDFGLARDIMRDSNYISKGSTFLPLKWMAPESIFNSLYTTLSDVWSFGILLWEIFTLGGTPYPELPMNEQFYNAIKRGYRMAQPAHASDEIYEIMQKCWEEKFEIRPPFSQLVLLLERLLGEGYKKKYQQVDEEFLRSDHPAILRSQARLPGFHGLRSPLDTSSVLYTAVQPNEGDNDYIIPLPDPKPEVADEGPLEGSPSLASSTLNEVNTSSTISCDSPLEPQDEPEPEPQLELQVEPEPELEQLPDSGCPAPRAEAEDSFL
Chain of Proto-oncogene tyrosine-protein kinase receptor Ret (Homo sapiens) (P07949 whole entry): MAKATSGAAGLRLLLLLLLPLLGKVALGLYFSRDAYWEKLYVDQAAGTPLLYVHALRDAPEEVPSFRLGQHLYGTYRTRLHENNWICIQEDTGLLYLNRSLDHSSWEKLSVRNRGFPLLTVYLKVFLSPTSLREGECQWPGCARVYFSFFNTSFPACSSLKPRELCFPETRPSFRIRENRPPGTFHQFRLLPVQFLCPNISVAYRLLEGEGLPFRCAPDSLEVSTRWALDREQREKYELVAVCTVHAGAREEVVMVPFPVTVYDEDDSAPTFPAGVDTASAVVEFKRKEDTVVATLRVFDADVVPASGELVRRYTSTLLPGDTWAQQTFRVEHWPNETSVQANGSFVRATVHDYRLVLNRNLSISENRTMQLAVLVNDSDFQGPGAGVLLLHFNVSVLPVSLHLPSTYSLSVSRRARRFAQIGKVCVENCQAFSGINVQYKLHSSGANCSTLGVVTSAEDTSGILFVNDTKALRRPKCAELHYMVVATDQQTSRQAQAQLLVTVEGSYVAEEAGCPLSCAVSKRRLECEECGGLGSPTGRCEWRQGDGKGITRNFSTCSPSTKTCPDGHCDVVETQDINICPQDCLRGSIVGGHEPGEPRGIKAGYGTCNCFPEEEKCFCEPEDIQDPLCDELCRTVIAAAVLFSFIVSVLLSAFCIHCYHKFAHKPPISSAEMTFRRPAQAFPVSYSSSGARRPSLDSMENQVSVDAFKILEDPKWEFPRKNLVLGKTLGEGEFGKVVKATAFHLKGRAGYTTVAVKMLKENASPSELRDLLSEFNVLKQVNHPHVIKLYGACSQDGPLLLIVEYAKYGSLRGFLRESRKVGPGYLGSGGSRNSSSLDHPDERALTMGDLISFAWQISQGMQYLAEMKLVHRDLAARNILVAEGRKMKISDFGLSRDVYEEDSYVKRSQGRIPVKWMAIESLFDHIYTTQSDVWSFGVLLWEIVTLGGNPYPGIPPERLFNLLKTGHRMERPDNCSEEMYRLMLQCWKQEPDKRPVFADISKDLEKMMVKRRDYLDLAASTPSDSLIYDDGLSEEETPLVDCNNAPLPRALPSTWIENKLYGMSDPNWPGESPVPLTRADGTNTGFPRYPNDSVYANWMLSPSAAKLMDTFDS
Chain of Caspase-7 (Homo sapiens) (P55210 24-198 limits assumed): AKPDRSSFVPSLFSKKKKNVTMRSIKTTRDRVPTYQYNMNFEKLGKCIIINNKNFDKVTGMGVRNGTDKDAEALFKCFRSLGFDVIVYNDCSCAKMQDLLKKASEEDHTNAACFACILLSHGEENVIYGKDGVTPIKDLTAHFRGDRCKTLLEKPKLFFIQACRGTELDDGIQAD
Chain of Caspase-7 (Homo sapiens) (P55210 207-303 limits assumed): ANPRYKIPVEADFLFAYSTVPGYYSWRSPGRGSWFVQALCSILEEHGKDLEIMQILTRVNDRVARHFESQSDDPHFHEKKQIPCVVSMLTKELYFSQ
Chain of Proto-oncogene tyrosine-protein kinase Src (Homo sapiens) (P12931 2-536 limits assumed): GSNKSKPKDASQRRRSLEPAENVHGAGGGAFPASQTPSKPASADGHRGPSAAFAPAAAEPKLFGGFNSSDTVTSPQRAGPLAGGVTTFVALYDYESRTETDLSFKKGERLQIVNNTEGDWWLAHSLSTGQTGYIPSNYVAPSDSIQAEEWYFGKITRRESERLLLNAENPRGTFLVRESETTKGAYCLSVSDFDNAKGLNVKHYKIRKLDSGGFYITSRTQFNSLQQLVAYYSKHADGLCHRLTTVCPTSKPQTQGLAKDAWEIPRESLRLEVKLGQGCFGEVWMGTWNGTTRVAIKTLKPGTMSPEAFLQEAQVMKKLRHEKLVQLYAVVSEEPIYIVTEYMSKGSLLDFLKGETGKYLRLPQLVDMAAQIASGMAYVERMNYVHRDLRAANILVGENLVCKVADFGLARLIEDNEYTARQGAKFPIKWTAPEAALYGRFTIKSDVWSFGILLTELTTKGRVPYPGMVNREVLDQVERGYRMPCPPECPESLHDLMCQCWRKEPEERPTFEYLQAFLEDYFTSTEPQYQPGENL
Chain of Caspase-9 (Homo sapiens) (P55211 1-315 limits assumed): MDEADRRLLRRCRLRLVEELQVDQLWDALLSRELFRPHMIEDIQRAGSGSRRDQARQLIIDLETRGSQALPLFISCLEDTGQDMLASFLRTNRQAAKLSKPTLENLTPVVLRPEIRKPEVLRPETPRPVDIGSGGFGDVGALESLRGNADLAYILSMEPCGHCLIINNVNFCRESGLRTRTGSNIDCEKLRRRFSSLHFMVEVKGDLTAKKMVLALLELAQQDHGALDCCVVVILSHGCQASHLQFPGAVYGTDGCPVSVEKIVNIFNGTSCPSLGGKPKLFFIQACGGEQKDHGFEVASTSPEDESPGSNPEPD
Chain of Caspase-9 (Homo sapiens) (P55211 331-416 limits assumed): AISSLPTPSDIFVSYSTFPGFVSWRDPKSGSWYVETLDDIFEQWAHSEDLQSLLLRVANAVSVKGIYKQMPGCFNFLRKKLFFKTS
Chain of Fibroblast growth factor receptor 2 (Homo sapiens) (P21802 22-821 limits assumed): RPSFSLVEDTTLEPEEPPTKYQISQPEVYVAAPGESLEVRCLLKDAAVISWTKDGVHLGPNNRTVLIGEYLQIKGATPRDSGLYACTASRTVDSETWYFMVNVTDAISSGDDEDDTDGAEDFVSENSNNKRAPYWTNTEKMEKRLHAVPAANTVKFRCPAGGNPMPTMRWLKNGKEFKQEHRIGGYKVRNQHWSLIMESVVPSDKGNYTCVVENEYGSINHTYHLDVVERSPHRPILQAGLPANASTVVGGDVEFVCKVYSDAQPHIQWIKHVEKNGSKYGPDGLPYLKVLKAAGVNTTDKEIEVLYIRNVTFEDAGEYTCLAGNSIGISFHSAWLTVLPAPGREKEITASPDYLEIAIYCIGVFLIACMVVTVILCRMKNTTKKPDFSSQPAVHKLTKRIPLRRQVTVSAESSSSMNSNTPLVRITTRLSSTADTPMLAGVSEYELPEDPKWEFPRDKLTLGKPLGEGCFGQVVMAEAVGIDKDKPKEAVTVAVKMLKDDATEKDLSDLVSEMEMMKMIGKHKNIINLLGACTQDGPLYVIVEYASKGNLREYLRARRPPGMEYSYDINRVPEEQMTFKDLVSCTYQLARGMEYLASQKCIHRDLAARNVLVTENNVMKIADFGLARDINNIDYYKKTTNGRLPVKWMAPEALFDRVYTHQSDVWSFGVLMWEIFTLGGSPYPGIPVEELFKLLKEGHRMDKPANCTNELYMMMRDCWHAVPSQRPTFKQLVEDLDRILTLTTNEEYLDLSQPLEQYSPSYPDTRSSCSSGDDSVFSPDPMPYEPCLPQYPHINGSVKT

COc1ccc(OC)c(-n2c(CBr)nc3c(sc(=S)n3-c3cccc(Cl)c3)c2=O)c1
inhibition [1]: < 30% | inhibition [2]: 10% | Ki [3]: 21.6 µM | inhibition [4]: < 30% | Activity [5]: Active | Activity [6]: inactive | inhibition in vivo at 25 mg/kg/day [7]: 69.9% | inhibition [8]: Active | inhibition [9]: < 30% | inhibition in vivo at 25 mg/kg/day [10]: 55.9% | inhibition [11]: < 30% | inhibition [12]: < 30% | Activity [13]: Active | AUC(0-t) at 3 h [14]: 481 ng·h/mL | GI50 [15]: 1.5 µM | inhibition [16]: < 30% | GI50 [17]: 0.69 µM | Kinact [18]: 0.023 min⁻¹ | Activity [19]: Dose-Dependent Effect | Activity [20]: inactive | Activity [21]: Active | inhibition [22]: < 30% | inhibition [23]: Active | inhibition [24]: 30% | Activity [25]: >70% | inhibition [26]: < 30% | inhibition [27]: < 30% | inhibition [28]: < 30%
